Reference: patent publication US12077503B2, “Substituted cyclic amides and their use as herbicides” (FMC CORPORATION, priority 2015, dated 2024)

Legend:
Assay type in all cases: in vivo
[1] = system: barnyardgrass (Echinochloa crus-galli); assay: Test A preemergence; conditions: Echinochloa crus-galli, pre-emergence, 240 h, preemergence, 0 to 100 scale where 0 is no effect and 100 is complete control, read-out: Barnyardgrass plant response rating; for pest or weed control at 125 g/ha: 125 g ai/ha, visual injury rating, approximately 10 d; for pest or weed control at 500 g/ha: 500 g ai/ha
Procedure, shortened: (§1)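 Visual injury scores from 0, no effect, to 100, complete control, were assigned versus untreated controls roughly 10 d after treatment in the greenhouse. Test chemicals, formulated with surfactant in a non-phytotoxic solvent, were applied to planted seeds as a preemergence soil spray or postemergence to one- to two-leaf plants 2 to 10 cm tall, in loam–sand soil.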

[2] = system: ragweed (common ragweed, Ambrosia elatior); assay: Test A preemergence; conditions: Ambrosia artemisiifolia, pre-emergence, 240 h, preemergence, 0 to 100 scale where 0 is no effect and 100 is complete control, read-out: Ragweed plant response rating; for pest or weed control at 125 g/ha: 125 g ai/ha, visual injury rating, approximately 10 d; for pest or weed control at 500 g/ha: 500 g ai/ha
Procedure, shortened: as §1

[3] = system: ryegrass, Italian (Italian ryegrass, Lolium multiflorum); assay: Test A preemergence; conditions: Lolium multiflorum, pre-emergence, 240 h, preemergence, 0 to 100 scale where 0 is no effect and 100 is complete control, read-out: Ryegrass, Italian plant response rating; for pest or weed control at 125 g/ha: 125 g ai/ha, visual injury rating, approximately 10 d; for pest or weed control at 500 g/ha: 500 g ai/ha
Procedure, shortened: as §1

[4] = system: giant foxtail (Setaria faberii); assay: Test A preemergence; conditions: Setaria faberi, pre-emergence, 240 h, preemergence, 0 to 100 scale where 0 is no effect and 100 is complete control, read-out: Foxtail, Giant plant response rating; for pest or weed control at 125 g/ha: 125 g ai/ha, visual injury rating, approximately 10 d; for pest or weed control at 500 g/ha: 500 g ai/ha
Procedure, shortened: as §1

[5] = system: Kochia (Kochia scoparia); assay: Test A preemergence; conditions: Bassia scoparia, pre-emergence, 240 h, preemergence, 0 to 100 scale where 0 is no effect and 100 is complete control, read-out: Kochia plant response rating; for pest or weed control at 125 g/ha: 125 g ai/ha, visual injury rating, approximately 10 d; for pest or weed control at 500 g/ha: 500 g ai/ha
Procedure, shortened: as §1

[6] = system: pigweed (Amaranthus retroflexus); assay: Test A preemergence; conditions: Amaranthus retroflexus, pre-emergence, 240 h, preemergence, 0 to 100 scale where 0 is no effect and 100 is complete control, read-out: Pigweed plant response rating; for pest or weed control at 125 g/ha: 125 g ai/ha, visual injury rating, approximately 10 d; for pest or weed control at 500 g/ha: 500 g ai/ha
[7] = system: wheat (Triticum aestivum); assay: Test A postemergence; conditions: Triticum aestivum, post-emergence, 240 h, postemergence; for plant injury at 125 g/ha: 125 g ai/ha, visual injury vs untreated controls after approx. 10 d, 0 = no effect, 100 = complete control, read-out: Wheat plant response rating (0 to 100 scale); for plant injury at 500 g/ha: 500 g ai/ha, 0 to 100 scale, 0 is no effect, 100 is complete control, read-out: Wheat plant response rating
Procedure, shortened: as §1

[8] = system: ragweed (common ragweed, Ambrosia elatior); assay: Test A postemergence; conditions: Ambrosia artemisiifolia, post-emergence, 240 h, postemergence; for pest or weed control at 125 g/ha: 125 g ai/ha, visual injury vs untreated controls after approx. 10 d, 0 = no effect, 100 = complete control, read-out: Ragweed plant response rating (0 to 100 scale); for pest or weed control at 500 g/ha: 500 g ai/ha, 0 to 100 scale, 0 is no effect, 100 is complete control, read-out: Ragweed plant response rating
Procedure, shortened: as §1

[9] = system: blackgrass (Alopecurus myosuroides); assay: Test A postemergence; conditions: Alopecurus myosuroides, post-emergence, 240 h, postemergence; for pest or weed control at 125 g/ha: 125 g ai/ha, visual injury vs untreated controls after approx. 10 d, 0 = no effect, 100 = complete control, read-out: Blackgrass plant response rating (0 to 100 scale); for pest or weed control at 500 g/ha: 500 g ai/ha, 0 to 100 scale, 0 is no effect, 100 is complete control, read-out: Blackgrass plant response rating
Procedure, shortened: as §1

[10] = system: ryegrass, Italian (Italian ryegrass, Lolium multiflorum); assay: Test A postemergence; conditions: Lolium multiflorum, post-emergence, 240 h, postemergence; for pest or weed control at 125 g/ha: 125 g ai/ha, visual injury vs untreated controls after approx. 10 d, 0 = no effect, 100 = complete control, read-out: Ryegrass, Italian plant response rating (0 to 100 scale); for pest or weed control at 500 g/ha: 500 g ai/ha, 0 to 100 scale, 0 is no effect, 100 is complete control, read-out: Ryegrass, Italian plant response rating
Procedure, shortened: as §1

[11] = system: corn (Zea mays); assay: Test A postemergence; conditions: Zea mays, post-emergence, 240 h, postemergence; for plant injury at 125 g/ha: 125 g ai/ha, visual injury vs untreated controls after approx. 10 d, 0 = no effect, 100 = complete control, read-out: Corn plant response rating (0 to 100 scale); for plant injury at 500 g/ha: 500 g ai/ha, 0 to 100 scale, 0 is no effect, 100 is complete control, read-out: Corn plant response rating
Procedure, shortened: as §1

[12] = system: giant foxtail (Setaria faberii); assay: Test A postemergence; conditions: Setaria faberi, post-emergence, 240 h, postemergence; for pest or weed control at 125 g/ha: 125 g ai/ha, visual injury vs untreated controls after approx. 10 d, 0 = no effect, 100 = complete control, read-out: Foxtail, Giant plant response rating (0 to 100 scale); for pest or weed control at 500 g/ha: 500 g ai/ha, 0 to 100 scale, 0 is no effect, 100 is complete control, read-out: Foxtail, Giant plant response rating
Procedure, shortened: as §1

[13] = system: Kochia (Kochia scoparia); assay: Test A postemergence; conditions: Bassia scoparia, post-emergence, 240 h, postemergence; for pest or weed control at 125 g/ha: 125 g ai/ha, visual injury vs untreated controls after approx. 10 d, 0 = no effect, 100 = complete control, read-out: Kochia plant response rating (0 to 100 scale); for pest or weed control at 500 g/ha: 500 g ai/ha, 0 to 100 scale, 0 is no effect, 100 is complete control, read-out: Kochia plant response rating
Procedure, shortened: as §1

[14] = system: pigweed (Amaranthus retroflexus); assay: Test A postemergence; conditions: Amaranthus retroflexus, post-emergence, 240 h, postemergence; for pest or weed control at 125 g/ha: 125 g ai/ha, visual injury vs untreated controls after approx. 10 d, 0 = no effect, 100 = complete control, read-out: Pigweed plant response rating (0 to 100 scale); for pest or weed control at 500 g/ha: 500 g ai/ha, 0 to 100 scale, 0 is no effect, 100 is complete control, read-out: Pigweed plant response rating
Procedure, shortened: as §1

[15] = system: Galium (catchweed bedstraw, Galium aparine); assay: Test A postemergence; conditions: Galium, post-emergence, 240 h, postemergence; for pest or weed control at 125 g/ha: 125 g ai/ha, visual injury vs untreated controls after approx. 10 d, 0 = no effect, 100 = complete control, read-out: Galium plant response rating (0 to 100 scale); for pest or weed control at 500 g/ha: 500 g ai/ha, 0 to 100 scale, 0 is no effect, 100 is complete control, read-out: Galium plant response rating
Procedure, shortened: as §1

Cc1c(F)cccc1NC(=O)[C@H]1C(=O)N(C)C[C@@H]1c1ccc(C(F)(F)F)nc1 [Compound 1197]
100%: pest or weed control at 125 g/ha [1] | pest or weed control at 500 g/ha [1] | pest or weed control at 125 g/ha [2] | pest or weed control at 500 g/ha [2] | pest or weed control at 125 g/ha [4] | pest or weed control at 500 g/ha [4] | pest or weed control at 125 g/ha [5] | pest or weed control at 500 g/ha [5]
70%: pest or weed control at 125 g/ha [3] | pest or weed control at 500 g/ha [3] | pest or weed control at 125 g/ha [13] | pest or weed control at 500 g/ha [14]
90%: plant injury at 500 g/ha [11] | pest or weed control at 125 g/ha [12] | pest or weed control at 500 g/ha [12]
50%: plant injury at 125 g/ha [7] | pest or weed control at 125 g/ha [8] | pest or weed control at 125 g/ha [9] | pest or weed control at 500 g/ha [9] | pest or weed control at 125 g/ha [14]
60%: plant injury at 500 g/ha [7] | pest or weed control at 500 g/ha [8] | pest or weed control at 500 g/ha [10] | pest or weed control at 125 g/ha [15] | pest or weed control at 500 g/ha [15]
30%: pest or weed control at 125 g/ha [10]
80%: pest or weed control at 125 g/ha [6] | pest or weed control at 500 g/ha [6] | plant injury at 125 g/ha [11] | pest or weed control at 500 g/ha [13]

COc1cc(C(F)(F)F)ccc1[C@H]1CNC(=O)[C@@H]1C(=O)Nc1ccccc1F [Compound 1202]
70%: pest or weed control at 125 g/ha [12]
60%: pest or weed control at 500 g/ha [3] | pest or weed control at 500 g/ha [5]
40%: pest or weed control at 500 g/ha [9] | pest or weed control at 500 g/ha [13] | pest or weed control at 500 g/ha [15]
50%: pest or weed control at 125 g/ha [4] | plant injury at 500 g/ha [7]
30%: plant injury at 500 g/ha [11] | pest or weed control at 125 g/ha [13]
0%: pest or weed control at 125 g/ha [2] | pest or weed control at 125 g/ha [3] | pest or weed control at 125 g/ha [6] | pest or weed control at 500 g/ha [6] | plant injury at 125 g/ha [7] | pest or weed control at 125 g/ha [8] | pest or weed control at 125 g/ha [9] | pest or weed control at 125 g/ha [10] | pest or weed control at 500 g/ha [10] | pest or weed control at 125 g/ha [14] | pest or weed control at 125 g/ha [15]
20%: pest or weed control at 125 g/ha [5] | pest or weed control at 500 g/ha [8] | plant injury at 125 g/ha [11] | pest or weed control at 500 g/ha [14]
90%: pest or weed control at 125 g/ha [1] | pest or weed control at 500 g/ha [1] | pest or weed control at 500 g/ha [2] | pest or weed control at 500 g/ha [4] | pest or weed control at 500 g/ha [12]
